Laboratory results from patent US12441733B2, “Substituted 2,4-dioxotetrahydropyrimidines as intermediates in the synthesis of bruton's tyrosine kinase inhibitors” (Novartis AG, priority 2018, dated 2025).

How the values were obtained:
Type in all cases: cell-based
[1] = biological target: T1, IKZF3-GFP (Homo sapiens, UniProt Q96SW2+Q9UKT9); test: IKZF3-GFP protein abundance flow cytometry assay in HEK293A cells; conditions: Table 3, positive control compounds; % protein remaining at maximum degradation
T1 construct: expressed in transfected cells; host or cells: HEK293A (Invitrogen R70507), lentiviral transduction with pLenti6-IKZF3-GFP-Ires-RFP, blasticidin selection
T1 sequence (Q9UKT9 whole entry): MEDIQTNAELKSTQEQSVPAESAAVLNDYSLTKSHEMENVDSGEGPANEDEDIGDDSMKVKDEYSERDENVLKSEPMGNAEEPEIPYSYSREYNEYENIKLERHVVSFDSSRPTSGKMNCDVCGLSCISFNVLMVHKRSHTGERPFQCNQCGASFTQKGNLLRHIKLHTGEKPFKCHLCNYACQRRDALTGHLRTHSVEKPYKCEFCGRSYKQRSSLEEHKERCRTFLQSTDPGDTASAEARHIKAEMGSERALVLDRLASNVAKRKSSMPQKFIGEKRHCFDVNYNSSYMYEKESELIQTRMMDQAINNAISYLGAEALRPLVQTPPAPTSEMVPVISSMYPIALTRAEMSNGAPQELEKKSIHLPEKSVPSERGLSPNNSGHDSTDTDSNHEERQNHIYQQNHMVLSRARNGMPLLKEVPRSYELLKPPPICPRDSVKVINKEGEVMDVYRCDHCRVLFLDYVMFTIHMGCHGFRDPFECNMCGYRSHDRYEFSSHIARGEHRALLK
T1 sequence (Q96SW2 whole entry): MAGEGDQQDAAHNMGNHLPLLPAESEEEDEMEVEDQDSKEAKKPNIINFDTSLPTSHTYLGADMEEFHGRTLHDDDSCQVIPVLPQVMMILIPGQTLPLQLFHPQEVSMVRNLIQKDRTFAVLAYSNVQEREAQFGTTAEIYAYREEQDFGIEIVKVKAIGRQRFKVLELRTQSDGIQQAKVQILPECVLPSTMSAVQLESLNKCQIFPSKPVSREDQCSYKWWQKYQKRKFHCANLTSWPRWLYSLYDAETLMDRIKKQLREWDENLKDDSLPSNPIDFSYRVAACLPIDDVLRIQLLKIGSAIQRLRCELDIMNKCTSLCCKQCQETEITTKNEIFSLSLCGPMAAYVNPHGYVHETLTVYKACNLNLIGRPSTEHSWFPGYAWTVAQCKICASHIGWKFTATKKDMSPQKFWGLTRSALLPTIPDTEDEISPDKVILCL
T1 sequence (Q16531 whole entry partner): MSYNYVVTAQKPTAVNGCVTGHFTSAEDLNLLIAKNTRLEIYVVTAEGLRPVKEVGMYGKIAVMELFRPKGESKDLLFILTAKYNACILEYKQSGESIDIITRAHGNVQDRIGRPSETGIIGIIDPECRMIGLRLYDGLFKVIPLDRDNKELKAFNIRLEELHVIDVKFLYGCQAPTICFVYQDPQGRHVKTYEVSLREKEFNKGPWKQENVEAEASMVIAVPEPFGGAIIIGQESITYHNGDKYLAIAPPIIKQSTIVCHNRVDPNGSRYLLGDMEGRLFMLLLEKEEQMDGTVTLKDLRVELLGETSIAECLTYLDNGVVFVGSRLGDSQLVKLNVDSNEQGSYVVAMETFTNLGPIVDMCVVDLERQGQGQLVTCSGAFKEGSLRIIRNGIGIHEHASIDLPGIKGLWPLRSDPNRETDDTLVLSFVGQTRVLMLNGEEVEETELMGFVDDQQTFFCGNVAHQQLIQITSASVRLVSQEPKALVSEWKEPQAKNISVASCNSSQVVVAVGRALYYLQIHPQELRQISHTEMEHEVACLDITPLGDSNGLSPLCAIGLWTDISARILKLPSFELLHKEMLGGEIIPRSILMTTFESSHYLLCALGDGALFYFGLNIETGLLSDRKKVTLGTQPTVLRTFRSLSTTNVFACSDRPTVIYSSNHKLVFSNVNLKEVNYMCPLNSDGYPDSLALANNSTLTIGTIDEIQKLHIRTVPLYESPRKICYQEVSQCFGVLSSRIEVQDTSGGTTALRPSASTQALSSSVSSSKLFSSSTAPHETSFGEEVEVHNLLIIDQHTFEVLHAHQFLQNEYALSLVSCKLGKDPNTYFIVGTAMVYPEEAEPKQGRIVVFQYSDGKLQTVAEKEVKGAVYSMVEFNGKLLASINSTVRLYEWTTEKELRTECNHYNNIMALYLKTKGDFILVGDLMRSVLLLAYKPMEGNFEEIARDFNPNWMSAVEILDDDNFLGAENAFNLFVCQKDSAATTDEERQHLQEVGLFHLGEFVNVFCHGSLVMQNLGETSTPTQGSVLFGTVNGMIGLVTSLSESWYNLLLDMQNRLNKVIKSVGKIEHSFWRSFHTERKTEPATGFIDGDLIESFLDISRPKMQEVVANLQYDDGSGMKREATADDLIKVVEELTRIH
Procedure: BTK-GFP and IKZF3-GFP protein abundance flow cytometry assay in HEK293A cells:
Degradation of BTK or IKZF3 was measured in HEK293A cells (Invitrogen R70507) expressing either BTK-GFP and RFP or IKZF3-GFP and RFP from a stably integrated bicistronic BTK-GFP-iresRFP or IKZF3-GFP-iresRFP construct, respectively. Reduction of the GFP signal measured by flow cytometry served as readout for BTK or IKZF3 degradation after degrader treatment.
By analogy the bicistronic pLenti6-IKZF3-GFP-iresRFP was engineered by gateway cloning of IKZF3 from a pENTR221-IKZF3(STOP-Leu) construct into the previously described pLenti6-DEST-GFP-Ires-RFP vector using the LR Clonase kit (Invitrogen 11791-019) according to the manufacturer's manual. All vectors described have been sequenced for verification.
ii) Engineering of Stably Expressing 293A BTK-GFP-Ires-RFP and IKZF3-GFP-Ires-RFP Sensor Cells
293A BTK-GFP-Ires-RFP and IKZF3-GFP-ires-RFP sensor cells were generated by lentiviral vector transduction using the pLenti6-BTK-GFP-Ires-RFP or pLenti6-IKZF3-GFP-Ires-RFP sensor construct described before. Lentiviral particles were produced in HEK293FT cells (Invitrogen R70007) by co-transfection of 500 ng pLenti6-BTK-GFP-ires-RFP or pLenti6-IKZF3-GFP-Ires-RFP, 500 ng delta8.71 and 200 ng pVSVG diluted in 100 μl OptiMEM serum free medium (Invitrogen #11058-021) that was mixed after 5 min preincubation with 3 μl of Lipofectamine2000 (Invitrogen #11668-019) in 97 μl OptiMEM serum free medium. The mix was incubated for another 20 min at RT and then added on 1 ml of a freshly prepared suspension of HEK293FT cells in a well of a 6-well plate (concentration 1.2×10^6 cells/ml). 1 day after transfection, the medium was replaced with 1.5 ml of complete growth medium (DMEM high Glucose+10% FCS+1% L-Glutamine+1% NEAA+1% NaPyr.). 48 h post transfection supernatant containing viral transducing particles was collected and frozen at −80° C.
Two days before transduction with viral particles 1×10^5 HEK293A cells (Invitrogen R70507) were seeded in 2 ml growth medium in a well of a 6-well plate. Infection was performed with 90 μl of collected supernatant containing viral transducing particles in 1 ml medium including 8 μg/ml polybrene. 24 h post infection, stably transfected cells were selected with blasticidin at a concentration of 8 μg/ml.
Iii) Quantitative BTK-GFP and IKZF3-GFP Abundance Measurements
Stable HEK293A-BTK-GFP-iresRFP cells were maintained in complete growth medium (DMEM high Glucose+10% FCS+1% L-Glutamine+1% NEAA+1% NaPyr.) with passaging performed twice per week. On Day 0, HEK293A-BTK-GFP-iresRFP or HEK293A-IKZF3-GFP-iresRFP and HEK293A-iresRFP cells were seeded at 10,000 cells/well in a 96-well microtiter plate in 260 μl complete medium. On Day 1, cells were treated in duplicate with 10-point 1:3 dilution series of compound using the HP D300 Digital Dispenser (Tecan). DMSO concentrations were normalized across the plate to 0.1%. On Day 2, after 24 h of incubation at 37° C., treatment media was discarded, cells rinsed with 100 μl/well PBS and then detached using 40 μl trypsin/well for 5 min. Trypsin was neutralized with 100 μl/well PBS+20% FCS). Flow cytometry was performed on the samples using the BD FACS CANTO II (Becton Dickinson). Cell identification was then performed using forward (FSC) vs. side scatter (SSC) plots. […] Median GFP values for 5,000 single cells are used to determine BTK levels. Median GFP values from HEK293A-iresRFP are used as a background signal and thus defining 0% BTK signal. Median GFP values from DMSO treated HEK293A-BTK-GFP-iresRFP or HEK293A-IKZF3-GFP-iresRFP are used to define 100% BTK signal for subsequent DC50 curves (concentration at 50% BTK degradation).

[2] = system: OCI-LY3 cells; test: Resazurin cell viability (proliferation) assay in OCI-LY3 DLBCL cells; conditions: Homo sapiens, OCI-LY3 cells (BTK independent), 72 h, 50% growth inhibition vs vehicle, read-out: OCI-LY3 Prol GI50
Method in brief: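 Cells were seeded at 1×10^4 per well and dosed 3 h later: 8-point 1:4 dilutions from 10 μM (OCI-LY3), in triplicate, 72 h at 37 °C. Resazurin (13 μg/ml final) was added for the last 2 h and fluorescence read at 530/600 nm. GI50 is relative to DMSO vehicle, typically from ≥2 independent experiments.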

[3] = system: TMD8 cells; test: Resazurin cell viability (proliferation) assay in TMD8 DLBCL cells; conditions: Homo sapiens, TMD8 cells (BTK dependent), 72 h, 50% growth inhibition vs vehicle, read-out: TMD8 Prol GI50
Method in brief: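 TMD8 cells were seeded at 1×10^4 per well and treated 3 h later with compound, in an 8-point 1:4 dilution series starting at 1 μM, or DMSO, for 72 h at 37° C. Resazurin was added at 13 μg/ml final for the last 2 h, and fluorescence was read at ex 530/em 600 nm. GI50 versus vehicle was derived by curve fitting from triplicates.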

[4] = biological target: T2, BTK-GFP (Homo sapiens, UniProt Q06187+Q96SW2); test: BTK-GFP protein abundance flow cytometry assay in HEK293A cells; conditions: HEK293A BTK-GFP-iresRFP cells, 24 h; for DC50: GFP signal by flow cytometry, concentration at which 50% maximal degradation was observed; for BTK deg Amax: % protein remaining at the concentration at which maximum degradation is seen
T2 construct: expressed in transfected cells; host or cells: HEK293A (Invitrogen R70507), lentiviral transduction with pLenti6-BTK-GFP-Ires-RFP, blasticidin selection
T2 sequence (Q06187 whole entry): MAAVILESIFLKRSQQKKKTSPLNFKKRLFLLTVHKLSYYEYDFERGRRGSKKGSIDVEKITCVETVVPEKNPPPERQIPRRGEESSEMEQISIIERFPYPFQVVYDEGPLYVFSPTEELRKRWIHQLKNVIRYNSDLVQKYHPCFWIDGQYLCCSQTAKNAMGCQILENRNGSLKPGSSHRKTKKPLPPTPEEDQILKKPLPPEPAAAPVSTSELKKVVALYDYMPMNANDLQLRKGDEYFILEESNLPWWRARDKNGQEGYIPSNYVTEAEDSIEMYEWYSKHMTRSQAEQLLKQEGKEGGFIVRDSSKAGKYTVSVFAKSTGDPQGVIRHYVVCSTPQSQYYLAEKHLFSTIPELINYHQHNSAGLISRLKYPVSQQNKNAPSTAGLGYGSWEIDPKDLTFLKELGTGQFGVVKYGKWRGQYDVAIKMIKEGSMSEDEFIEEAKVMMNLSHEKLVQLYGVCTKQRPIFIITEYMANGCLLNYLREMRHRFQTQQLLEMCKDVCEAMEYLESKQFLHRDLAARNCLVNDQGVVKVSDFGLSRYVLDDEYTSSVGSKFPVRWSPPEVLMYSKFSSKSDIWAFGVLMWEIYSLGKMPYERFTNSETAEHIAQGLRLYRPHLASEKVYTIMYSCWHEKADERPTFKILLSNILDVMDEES
T2 sequence (Q96SW2 whole entry): as the sequence (Q96SW2 whole entry) above
T2 sequence (Q16531 whole entry partner): as the sequence (Q16531 whole entry partner) above
Method in brief: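 HEK293A cells stably expressing bicistronic BTK-GFP-IRES-RFP (C-terminal GFP tag) via lentiviral vector. Degradation read by flow cytometry as loss of GFP signal after degrader treatment. DC50 is concentration giving 50% maximal degradation; Amax is % protein remaining at maximal degradation.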

SMILES | IKZF deg Amax [1] [%] | GI50 [2] [nM] | DC50 [4] [nM] | BTK deg Amax [4] [%] | GI50 [3] [nM]
Nc1cccc2c1C(=O)N(C1CCC(=O)NC1=O)C2=O (stereo not shown) [Pomalidomide, reference compound] | 13.2 | – | – | – | –
COc1ccc(C(=O)NCCN2CC3(CCN(Cc4ccc(-c5cc6c(-c7cc(F)cc(NC(=O)c8ccc(C(C)(C)O)cc8F)c7C)ncnc6[nH]5)cc4)CC3)C2)cc1N1CCC(=O)NC1=O [Compound 52, N-(3-(6-(4-((2-(2-(3-(2,4-dioxotetrahydropyrimidin-1(2H)-yl)-4-methoxybenzamido)ethyl)-2,7-diazaspiro[3.5]nonan-7-yl)methyl)phenyl)-7H-pyrrolo[2,3-d]pyrimidin-4-yl)-5-fluoro-2-methylphenyl)-2-fluoro-4-(2-hydroxypropan-2-yl)benzamide] | – | > 10000 | 2580 | 43.7 | 22.7
Cc1c(NC(=O)c2ccc(C(C)(C)O)cc2F)cc(F)cc1-c1ncnc2[nH]c(-c3ccc(CN4CCC5(CCN(CCCNC(=O)c6ccc(Cl)c(N7CCC(=O)NC7=O)c6)CC5)CC4)cc3)cc12 [Compound 57, N-(3-(6-(4-((9-(3-(4-chloro-3-(2,4-dioxotetrahydropyrimidin-1(2H)-yl)benzamido)propyl)-3,9-diazaspiro[5.5]undecan-3-yl)methyl)phenyl)-7H-pyrrolo[2,3-d]pyrimidin-4-yl)-5-fluoro-2-methylphenyl)-2-fluoro-4-(2-hydroxypropan-2-yl)benzamide] | – | 4400 | 14.4 | 8.9 | 1.16
COc1ccc(C(=O)N2CCC3(CCN(Cc4ccc(-c5cc6c(-c7cc(F)cc(NC(=O)c8ccc(C(C)(C)O)cc8F)c7C)ncnc6[nH]5)cc4)CC3)[C@H](CO)C2)cc1N1CCC(=O)NC1=O (single isomer, unassigned) [Compound 3] | – | > 10000 | 19.1 | 3.6 | 2.24
COc1ccc(C(=O)N2CCC(CCN3CCN(Cc4ccc(-c5cc6c(-c7cc(F)cc(NC(=O)c8ccc(C(C)(C)O)cc8F)c7C)ncnc6[nH]5)cc4)CC3)CC2)cc1N1CCC(=O)NC1=O [Compound 17, N-(3-(6-(4-((4-(2-(1-(3-(2,4-Dioxotetrahydropyrimidin-1(2H)-yl)-4-methoxybenzoyl)piperidin-4-yl)ethyl)piperazin-1-yl)methyl)phenyl)-7H-pyrrolo[2,3-d]pyrimidin-4-yl)-5-fluoro-2-methylphenyl)-2-fluoro-4-(2-hydroxypropan-2-yl)benzamide] | – | 4140 | 2.3 | 11.0 | 0.5

Continued, in another order:

IKZF deg Amax [1] [%] | GI50 [2] [nM] | DC50 [4] [nM] | BTK deg Amax [4] [%] | SMILES | GI50 [3] [nM]
– | 9160 | 61.1 | 7.6 | COc1ccc(C(=O)NCCN2CCC3(CC2)CCN(Cc2ccc(-c4cc5c(-c6cc(F)cc(NC(=O)c7ccc(C(C)(C)O)cc7F)c6C)ncnc5[nH]4)cc2)C3)cc1N1CCC(=O)NC1=O [Compound 35, N-(3-(6-(4-((8-(2-(3-(2,4-Dioxotetrahydropyrimidin-1(2H)-yl)-4-methoxybenzamido)ethyl)-2,8-diazaspiro[4.5]decan-2-yl)methyl)phenyl)-7H-pyrrolo[2,3-d]pyrimidin-4-yl)-5-fluoro-2-methylphenyl)-2-fluoro-4-(2-hydroxypropan-2-yl)benzamide] | 3.46
– | > 10000 | 150 | 17.4 | COc1ccc(C(=O)NCCN2CCC3(CCN(Cc4ccc(-c5cc6c(-c7cc(F)cc(NC(=O)c8ccc(C(C)(C)O)cc8F)c7C)ncnc6[nH]5)cc4)CC3)C2)cc1N1CCC(=O)NC1=O [Compound 53, N-(3-(6-(4-((2-(2-(3-(2,4-dioxotetrahydropyrimidin-1(2H)-yl)-4-methoxybenzamido)ethyl)-2,8-diazaspiro[4.5]decan-8-yl)methyl)phenyl)-7H-pyrrolo[2,3-d]pyrimidin-4-yl)-5-fluoro-2-methylphenyl)-2-fluoro-4-(2-hydroxypropan-2-yl)benzamide] | 3.14
